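Assay format: 96-well plates, 48-hour exposure. GI50 = concentration required for 50% inhibition of growth. The concentration for full growth arrest is given as TGI.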
Key:
Test in all cases: NCI-60 cell line screen, 48 h
786-0 renal = test system: 786-0 renal
CAKI-1 renal = test system: CAKI-1 renal
EKVX NSCLC = test system: EKVX NSCLC
A549 NSCLC = test system: A549 NSCLC
HL-60(TB) leukemia = test system: HL-60(TB) leukemia
MOLT-4 leukemia = test system: MOLT-4 leukemia
IGROV1 ovarian = test system: IGROV1 ovarian
LOX IMVI melanoma = test system: LOX IMVI melanoma
MCF7 breast = test system: MCF7 breast
MDA-MB-231 breast = test system: MDA-MB-231 breast

SMILES | TGI (786-0 renal) | TGI (CAKI-1 renal) | TGI (EKVX NSCLC) | TGI (A549 NSCLC) | TGI (HL-60(TB) leukemia) | TGI (MOLT-4 leukemia) | TGI (IGROV1 ovarian) | TGI (LOX IMVI melanoma) | GI50 (MCF7 breast) | TGI (MCF7 breast) | GI50 (LOX IMVI melanoma) | GI50 (786-0 renal) | GI50 (CAKI-1 renal) | GI50 (EKVX NSCLC) | GI50 (A549 NSCLC) | GI50 (HL-60(TB) leukemia) | GI50 (MOLT-4 leukemia) | GI50 (IGROV1 ovarian) | GI50 (MDA-MB-231 breast) | TGI (MDA-MB-231 breast)
O=C(c1ccccc1)c1c(-c2ccccc2)sc2nc3ccccc3nc12 | > 100 µM | > 100 µM | > 100 µM | > 100 µM | > 100 µM | > 100 µM | > 100 µM |  |  |  |  |  |  |  |  |  |  |  |  | 
COc1ccc(NC(=O)CC/C(CC(=O)C(C)(C)C)=N\NC(=O)C(=O)NN)cc1 | > 100 µM | > 100 µM | > 100 µM | > 100 µM | > 100 µM | > 100 µM | > 100 µM | > 100 µM |  |  |  |  |  |  |  |  |  |  |  | 
CC(C)(C)CC(C)(C)c1cc2c(O)c(c1)Cc1cc(C(C)(C)CC(C)(C)C)cc(c1O)Cc1cc(C(C)(C)CC(C)(C)C)cc(c1O)Cc1cc(C(C)(C)CC(C)(C)C)cc(c1O)Cc1cc(C(C)(C)CC(C)(C)C)cc(c1O)C2 | > 100 µM |  | > 100 µM | > 100 µM | > 100 µM | > 100 µM | > 100 µM |  |  |  |  |  |  |  |  |  |  |  |  | 
COc1ccccc1C(O)(c1ccccc1)C(O)(c1ccccc1)c1ccccc1OC (stereo not given) | > 100 µM |  | > 100 µM | > 100 µM | > 100 µM | > 100 µM | > 100 µM | > 100 µM |  |  |  |  |  |  |  |  |  |  |  | 
O=C1Cc2c([nH]c3ccccc23)-c2ccccc2N1 | > 100 µM | > 100 µM | > 100 µM | > 100 µM | > 100 µM | 94.3 µM | 70.8 µM | 37.7 µM |  |  |  |  |  |  |  |  |  |  |  | 
COc1ccc(-c2cc(=O)c3ccccc3o2)cc1N | > 100 µM | > 100 µM | > 100 µM | > 100 µM | 47.9 µM | > 100 µM | > 100 µM | > 100 µM |  |  |  |  |  |  |  |  |  |  |  | 
CN(C)CCNC(=O)c1cccc2nc3cc(Cl)ccc3nc12 | > 31 µM | > 23.5 µM | 18.1 µM | > 26.7 µM | 13.9 µM | 2.77 µM | > 50.6 µM | 2.86 µM |  |  |  |  |  |  |  |  |  |  |  | 
C=C(C#N)C1OCC2OC(C)(C)OC21 (stereo not given) | 39.4 µM | 49.1 µM | 60 µM | > 100 µM | 43 µM | 43.3 µM | > 100 µM | 30.4 µM |  |  |  |  |  |  |  |  |  |  |  | 
CC(=O)OC1CCn2nnc(CO)c21 (stereo not given) | > 100 µM | > 100 µM | > 100 µM | > 100 µM |  | > 100 µM | > 100 µM |  |  |  |  |  |  |  |  |  |  |  |  | 
CN1CC(=O)N(C)c2ncn(Cc3ccccc3)c2C1=O | > 100 µM |  | > 100 µM | > 100 µM | > 100 µM | > 100 µM | > 100 µM | > 100 µM |  |  |  |  |  |  |  |  |  |  |  | 
c1cc(N2CCCN(c3ccc(C4=NCCCN4)cc3)CC2)ccc1C1=NCCCN1 | > 100 µM | > 100 µM | > 100 µM | > 100 µM | > 100 µM | > 100 µM | > 100 µM | > 100 µM | > 100 µM | > 100 µM | > 100 µM | > 100 µM | > 100 µM | 40.6 µM | 59.6 µM | > 100 µM | > 100 µM | > 100 µM |  | 
Cc1cc(-c2nc3sccn3c2/C=N/N=C(N)N)c(C)s1 | 29.1 µM |  | 23.4 µM | 51 µM | > 100 µM | 60.7 µM |  | 30.5 µM |  |  | 16.4 µM | 15.7 µM |  | 10.5 µM | 25.5 µM | 15.6 µM | 17.6 µM |  | 15.3 µM | 29 µM
CC(C)[O-].CC(C)[O-].O=C1C=C([O-])C(=O)c2ccccc21.O=C1C=C([O-])C(=O)c2ccccc21.[Ti+4] | > 100 µM | > 100 µM | > 91.1 µM | > 100 µM | > 100 µM | > 100 µM | > 100 µM | > 100 µM |  |  | 5.21 µM | > 86.4 µM | > 91.3 µM | > 44.8 µM | 47.2 µM | 17.4 µM | > 100 µM | > 100 µM |  | 
O=C(O)NC(c1ccccc1)C(NC(=O)c1ccccc1)c1ccccc1 (stereo not given) | > 100 µM | > 100 µM | > 100 µM | > 100 µM |  |  | > 100 µM | > 100 µM |  |  |  |  |  |  |  |  |  |  |  | 
O=C(O)Cc1cc(=O)[nH]c2c1/C(=N/O)CCC2 | > 100 µM |  | > 100 µM | > 100 µM | > 100 µM | > 100 µM | > 100 µM |  |  |  |  |  |  |  |  |  |  |  |  | 
C[C@]12CCC(=O)C(O)=C1CC[C@@H]1C2CC[C@]2(C)NC(=O)CCC12 (stereo not given in full) | > 100 µM | > 100 µM | > 100 µM | > 100 µM | > 100 µM | > 100 µM | > 100 µM | > 100 µM |  |  |  |  |  |  |  |  |  |  |  | 
CC(=O)[CH-]C(=O)c1ccccc1.CC(=O)[CH-]C(=O)c1ccccc1.CC(C)CCCC(C)[C@H]1CCC2[C@@H]3CC=C4C[C@@H]([O-])CC[C@]4(C)C3CC[C@@]21C.CC(C)CCCC(C)[C@H]1CCC2[C@@H]3CC=C4C[C@@H]([O-])CC[C@]4(C)C3CC[C@@]21C.[Ti+4] (stereo not given in full) | > 100 µM | > 100 µM |  |  |  | > 100 µM | > 100 µM |  |  |  |  | > 100 µM | > 100 µM |  |  |  | > 100 µM | > 100 µM |  | 

SMILES | TGI (786-0 renal) | TGI (CAKI-1 renal) | TGI (EKVX NSCLC) | TGI (A549 NSCLC) | TGI (HL-60(TB) leukemia) | TGI (MOLT-4 leukemia) | TGI (IGROV1 ovarian) | TGI (LOX IMVI melanoma) | GI50 (MCF7 breast) | TGI (MCF7 breast) | GI50 (LOX IMVI melanoma) | GI50 (786-0 renal) | GI50 (CAKI-1 renal) | GI50 (EKVX NSCLC) | GI50 (A549 NSCLC) | GI50 (HL-60(TB) leukemia) | GI50 (MOLT-4 leukemia) | GI50 (IGROV1 ovarian) | GI50 (MDA-MB-231 breast) | TGI (MDA-MB-231 breast)
COc1ccc(C(=O)C(C(=O)CC(=O)Nc2cccc(C(F)(F)F)c2)c2ccc(OC)cc2)cc1 (stereo not given) | > 100 µM | > 100 µM | > 100 µM | > 100 µM | > 100 µM | > 100 µM | > 100 µM |  |  |  |  |  |  |  |  |  |  |  |  | 
O=C(Nc1ccc(Cl)cc1Cl)C1C(=O)C(=O)N(c2ccc(Cl)cc2Cl)C1=O (stereo not given) | > 100 µM | > 100 µM | > 100 µM | > 100 µM | > 100 µM |  | > 100 µM | > 100 µM |  |  |  |  |  |  |  |  |  |  |  | 
O=C1C=CC(=O)C12CCc1ccccc12 | > 100 µM | > 31.6 µM | > 100 µM | > 100 µM | > 60.6 µM | > 100 µM | > 100 µM | > 100 µM |  |  |  |  |  |  |  |  |  |  |  | 
O=C(CCc1nnc2s/c(=C\c3ccc(Cl)c(Cl)c3)c(=O)n12)Nc1ccc(Cl)c(Cl)c1 | > 100 µM | > 100 µM | > 100 µM | > 100 µM | 64 µM | 52.6 µM | > 100 µM | 39 µM |  |  |  |  |  |  |  |  |  |  |  | 
Cn1nc(-c2ccccc2)c(C(=O)/C=C/c2ccc(Cl)cc2)c(N2CCCCC2)c1=O | 3.67 µM | 3.94 µM | 15.3 µM | 8.65 µM | 4 µM | 4.65 µM | 4.95 µM | 6.09 µM |  |  |  |  |  |  |  |  |  |  |  | 
CCOc1ccc(N=Cc2ccc3cc(C)ccc3n2)cc1 | > 100 µM | > 100 µM | > 100 µM | > 100 µM | 48 µM | 76.7 µM | > 100 µM | > 100 µM |  |  |  |  |  |  |  |  |  |  |  | 
CC(=O)c1cccc(C)c1C(=O)O | > 100 µM | > 100 µM | > 100 µM | > 100 µM | > 100 µM | > 100 µM | > 100 µM | > 100 µM |  |  |  |  |  |  |  |  |  |  |  | 
O=C1O[C@H](c2ccccc2)[C@@H]2CC3(CCN12)OCCO3 | > 100 µM | > 100 µM | > 100 µM | > 100 µM | > 100 µM | > 100 µM | > 100 µM | > 100 µM |  |  |  |  |  |  |  |  |  |  |  | 
CCN(CC)CCCNC(=O)C1COc2cc(-c3cc(=O)c4ccccc4o3)ccc2O1 (stereo not given) | > 100 µM | > 100 µM | > 100 µM | > 100 µM | > 100 µM | > 100 µM | > 100 µM | 48.2 µM |  |  |  |  |  |  |  |  |  |  |  | 
NC1CCC(Nc2nc(NCc3ccc(-c4ccccc4O)nc3)c3ncn(C4CCCC4)c3n2)CC1 (stereo not given) | 1.06 µM | 2.2 µM | 0.474 µM | 1.18 µM |  | 0.213 µM | 2.04 µM |  |  |  |  | 0.0293 µM | 0.38 µM | 0.0291 µM | < 0.01 µM | < 0.01 µM | < 0.01 µM | 0.0345 µM | < 0.0105 µM | 0.895 µM
NC(=O)CCC(Nc1c2ccccc2nc2ccccc12)C(=O)O (stereo not given) | > 100 µM | > 100 µM | > 100 µM | > 100 µM | > 100 µM | > 100 µM |  | > 100 µM |  |  |  |  |  |  |  |  |  |  |  | 
COc1cc(OC)c(SSCCCCS(=O)O)c(OC)c1 | 35.4 µM |  | 31.3 µM | 40.3 µM | 24.8 µM | 26.8 µM | 57.8 µM | 29 µM |  |  |  |  |  |  |  |  |  |  |  | 
CC1=C(C(=O)Nc2cc(=O)n(C)c(=O)n2C)C(c2cccc([N+](=O)[O-])c2)C(C(=O)Nc2cc(=O)n(C)c(=O)n2C)=C(C)N1 | > 100 µM | > 100 µM | > 100 µM | > 100 µM | > 100 µM | > 100 µM | > 100 µM | > 100 µM |  |  |  |  |  |  |  |  |  |  |  | 
COc1ccc2c3c([nH]c2c1[N+](=O)[O-])C(C)N(Cc1ccc([N+](=O)[O-])cc1)CC3 (stereo not given) | > 100 µM | 32.5 µM | > 100 µM | > 100 µM | 17.9 µM | > 100 µM | > 100 µM | 26.8 µM |  |  |  |  |  |  |  |  |  |  |  | 
Cc1cccc(C)c1CO | > 100 µM | > 100 µM | > 100 µM | > 100 µM | > 100 µM | > 100 µM | > 100 µM | > 100 µM |  |  |  |  |  |  |  |  |  |  |  | 
CC(=O)CC(N)=O | > 100 µM | > 100 µM | > 100 µM | > 100 µM | > 100 µM | > 100 µM | > 100 µM |  |  |  |  |  |  |  |  |  |  |  |  | 
COC(=O)C1=C(O)c2cc(-c3ccccc3)c(-c3ccccc3)c(C#N)c2NC(=O)C1 | > 100 µM | 85.8 µM | > 100 µM | 54.4 µM |  | > 100 µM | 4.74 µM |  |  |  |  |  |  |  |  |  |  |  |  | 
